Measurements as given in patent US20260027220A1, “EPHA2 BCL-XL INHIBITOR ANTIBODY-DRUG CONJUGATES AND METHODS OF USE THEREOF” (Novartis AG, priority 2022, published 2026).
Values belong to the molecule of their own block, whether it stands above or below them.

How the values were obtained:
[1] = test system: Panc03.27 xenografts; assay: Panc03.27 xenograft efficacy, combination with gemcitabine (Table 15, FIG. 3); type: in vivo, mice; conditions: Gemcitabine 100 mg/kg IP q3dx3 alone
Description: (§1) EBC-1 cells were cultured at 37° C. (atmosphere of 5% CO2) in DMEM medium (Gibco 11965-084) supplemented with 10% FBS (HI-FBS #134K19, Tet-free). Panc03.27 cells were cultured at 37° C. (atmosphere of 5% CO2) in RPMI-1640 medium (Gibco 11875-085) supplemented with 15% FBS and 10 units/mL recombinant human insulin. Treatment with 0.25% Trypsin (Gibco 25200-056) was used for sub-culturing. To establish EBC-1 and Panc03.27 xenografts, cells were harvested and re-suspended in a 1:1 v/v mixture of phosphate buffered saline and Matrigel. A total of 5×10^6 EBC-1 cells and 10×10^6 Panc03.27 cells were injected subcutaneously in the flanks of female nude mice (Charles River, USA) in a volume of 200 μL. Tumor growth was monitored regularly post cell inoculation, and animals were randomized into treatment groups (n=8) with a mean tumor volume of about 200 mm^3.
(§2) For EBC-1 efficacy studies, EphA2-DANAPA-L11C-P25 ADC, 3207-DANAPA-L11C-P25 isotype control ADC, and EphA2-DANAPA CysMab control antibody were all dosed in combination with paclitaxel (LC Laboratories, Woburn, MA, Cat #: P-9600), as indicated in FIG. 1 and FIG. 2. For Panc03.27 efficacy studies, EphA2-DANAPA-L11C-P25 ADC, 3207-DANAPA-L11C-P25 isotype control ADC, and EphA2-DANAPA CysMab control antibody were all dosed in combination with either gemcitabine (Hospira, NDC Code 0409-0185-01) or the MAPK inhibitors (MAPKi) LXH254 and CFF272, as indicated in FIG. 3 and FIG. 4 respectively. […]
(§3) Tumor volume data were analyzed for statistical significance relative to the EphA2-DANAPA-L11C-P25 ADC combination groups. […]
(§4) As a measure of efficacy, % T/C values were calculated according to the following formula: (Δtumor volume in experimental group/Δtumor volume in vehicle control group)*100. Tumor regression was calculated according to the following formula: (Δtumor volume in experimental group/tumor volume in experimental group at start)*100. Δtumor volumes represent mean tumor volumes on the measurement day minus the mean tumor volume at the start of treatment. […]

[2] = test system: EBC-1 xenografts; assay: EBC-1 xenograft efficacy, ADC dose reduction alone or with paclitaxel (Table 14, FIG. 2); type: in vivo, mice; conditions: Paclitaxel 12.5 mg/kg SD IV alone
Description: as §1, §2, §3, §4

[3] = test system: EBC-1 xenografts; assay: EBC-1 xenograft efficacy, combination with paclitaxel (Table 13, FIG. 1); type: in vivo, mice; conditions: Paclitaxel 12.5 mg/kg SD IV alone; Day 12
Description: as §1, §2, §3, §4

[4] = test system: ebc1; assay: CellTiter-Glo proliferation assay, ebc1; type: cell-based; conditions: single agent, 5 days of treatment
Description: (§5) EphA2-L11A-P21 antibody drug conjugate (ADC) alone or in combination with Trametinib were tested against cancer cell lines obtained from ATCC (American Type Culture Collection) or from other commercial cell line vendors. EphA2-L11A-P21 ADC was prepared according to any of the conjugation methods described herein. The cells were cultured in media that is optimal for their growth at 5% CO2, 37° C. in a tissue culture incubator. Prior to seeding for the proliferation assay, the cells were split at least 2 days before the assay to ensure optimal growth density. On the day of seeding, cells were lifted off tissue culture flasks using 0.25% trypsin. Cell viability and cell density were determined using a cell counter (Vi-Cell XR Cell Viability Analyzer, Beckman Coulter). […]
(§6) The ADCs were prepared in standard phosphate buffered solution to desired concentrations. […] The ability of the ADCs to inhibit cell proliferation and survival was assessed using the Promega CellTiter-Glo® proliferation assay. Plates were incubated at room temperature for 20 minutes to stabilize luminescent signals prior to reading using a multimode plate reader (Pherastar, BMG). Luminescent counts of untreated cells were taken the day after seeding (Day 0 readings), and after 5 days of treatment (Day 5 readings). The Day 5 readings of the untreated cells were compared to the Day 0 readings. […]

[5] = test system: panc0327; assay: CellTiter-Glo proliferation assay, panc0327; type: cell-based; conditions: single agent, 5 days of treatment
Description: as §5, §6

[6] = test system: skmel31; assay: CellTiter-Glo proliferation assay, skmel31; type: cell-based; conditions: single agent, 5 days of treatment
Description: as §5, §6

[7] = test system: hcc1143; assay: CellTiter-Glo proliferation assay, hcc1143; type: cell-based; conditions: single agent, 5 days of treatment
Description: as §5, §6

[8] = test system: ocum1; assay: CellTiter-Glo proliferation assay, ocum1; type: cell-based; conditions: single agent, 5 days of treatment
Description: as §5, §6

[9] = test system: sw403; assay: CellTiter-Glo proliferation assay, sw403; type: cell-based; conditions: single agent, 5 days of treatment
Description: as §5, §6

[10] = test system: capan2; assay: CellTiter-Glo proliferation assay, capan2; type: cell-based; conditions: single agent, 5 days of treatment
Description: as §5, §6

[11] = test system: jhom2b; assay: CellTiter-Glo proliferation assay, jhom2b; type: cell-based; conditions: single agent, 5 days of treatment
Description: as §5, §6

[12] = test system: dv90; assay: CellTiter-Glo proliferation assay, dv90; type: cell-based; conditions: single agent, 5 days of treatment
Description: as §5, §6

[13] = test system: skhep1; assay: CellTiter-Glo proliferation assay, skhep1; type: cell-based; conditions: single agent, 5 days of treatment
Description: as §5, §6

[14] = test system: aspc1; assay: CellTiter-Glo proliferation assay, aspc1; type: cell-based; conditions: single agent, 5 days of treatment
Description: as §5, §6

[15] = test system: ncin87; assay: CellTiter-Glo proliferation assay, ncin87; type: cell-based; conditions: single agent, 5 days of treatment
Description: as §5, §6

[16] = biological target: T1, human EphA2 expressed on HKB-11 cells (human, UniProt P29317 24-976); assay: FACS titration on HKB-11 cells transduced to overexpress EphA2 (200 to 0.003 nM antibody, Alexa Fluor 647 anti-human IgG, MFI of live cells)
T1 construct: The HKB-11 cells were transduced to overexpress EphA2; also called HKB-11 EphA2+ cell line
T1 sequence (P29317 24-976 limits assumed): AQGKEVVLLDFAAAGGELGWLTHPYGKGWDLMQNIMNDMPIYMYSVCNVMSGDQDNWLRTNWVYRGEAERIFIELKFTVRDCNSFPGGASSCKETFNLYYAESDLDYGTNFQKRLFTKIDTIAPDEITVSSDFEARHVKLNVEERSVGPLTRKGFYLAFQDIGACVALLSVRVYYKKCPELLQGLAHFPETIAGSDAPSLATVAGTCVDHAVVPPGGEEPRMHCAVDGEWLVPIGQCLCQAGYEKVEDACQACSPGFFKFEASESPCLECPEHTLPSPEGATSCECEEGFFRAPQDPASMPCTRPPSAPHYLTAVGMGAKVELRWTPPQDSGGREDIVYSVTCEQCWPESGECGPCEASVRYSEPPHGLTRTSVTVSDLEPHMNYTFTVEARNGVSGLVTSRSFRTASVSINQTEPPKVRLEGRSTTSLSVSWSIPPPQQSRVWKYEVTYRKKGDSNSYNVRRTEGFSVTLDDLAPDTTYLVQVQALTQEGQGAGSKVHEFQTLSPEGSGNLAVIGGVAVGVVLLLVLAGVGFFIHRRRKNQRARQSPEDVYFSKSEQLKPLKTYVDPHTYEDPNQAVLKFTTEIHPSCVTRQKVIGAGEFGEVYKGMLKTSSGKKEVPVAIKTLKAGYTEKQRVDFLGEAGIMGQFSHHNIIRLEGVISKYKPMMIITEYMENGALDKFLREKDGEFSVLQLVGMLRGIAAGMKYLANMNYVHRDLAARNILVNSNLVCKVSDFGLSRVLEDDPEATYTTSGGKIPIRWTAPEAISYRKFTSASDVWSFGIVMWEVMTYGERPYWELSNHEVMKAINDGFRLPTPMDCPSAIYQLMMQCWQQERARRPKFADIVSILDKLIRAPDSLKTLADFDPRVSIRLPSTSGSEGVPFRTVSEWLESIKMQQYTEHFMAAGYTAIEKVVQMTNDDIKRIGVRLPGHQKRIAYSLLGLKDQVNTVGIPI
Description: The binding affinity of EphA2 antibodies on cells was evaluated using flow cytometry (FACS). […] Cell lines were cultured in media that is optimal for their growth at 5% CO₂, 37° C. in a tissue culture incubator. Cell viability and cell density were determined using a cell counter (Vi-Cell XR Cell Viability Analyzer, Beckman Coulter). […] All subsequent steps were performed on ice and in ice cold FACS buffer to prevent internalization of the receptor. Cells were resuspended in 100 μL of FACS buffer containing an 11-point serial dilution of test antibodies at final concentrations of 200 nM-0.003 nM. Cells were incubated at 4° C. for 45 minutes. Following incubation, cells were washed three times in ice cold PBS at 1000 rpm for 5 minutes with 200 μL FACS buffer. […] Cells were incubated in the dark at 4° C. for 45 minutes. Following incubation, cells were washed three times in ice cold PBS at 1000 rpm for 5 minutes with 200 μL FACS buffer. Cells were then resuspended in 100 μL FACS buffer containing DAPI (ThermoFisher, #D1306) staining followed by readout via flow cytometry (MACSQuant® Analyzer 10). Data was analyzed using FlowJo v10.8.1 to obtain MFI (Mean Fluorescence Intensity) on live cells. EC₅₀ values were calculated using the GraphPad Prism 9 software. There were three rounds of experiments performed to evaluate three groupings of EphA2 antibodies. […]

[17] = biological target: T2, cyno EphA2 ectodomain (cyno, UniProt Q1KL86 25-537); assay: SPR (Biacore 8k), Fab-capture, 37C, 1:1 model; *low binding signal
T2 construct: extracellular domain
T2 sequence (Q1KL86 25-537): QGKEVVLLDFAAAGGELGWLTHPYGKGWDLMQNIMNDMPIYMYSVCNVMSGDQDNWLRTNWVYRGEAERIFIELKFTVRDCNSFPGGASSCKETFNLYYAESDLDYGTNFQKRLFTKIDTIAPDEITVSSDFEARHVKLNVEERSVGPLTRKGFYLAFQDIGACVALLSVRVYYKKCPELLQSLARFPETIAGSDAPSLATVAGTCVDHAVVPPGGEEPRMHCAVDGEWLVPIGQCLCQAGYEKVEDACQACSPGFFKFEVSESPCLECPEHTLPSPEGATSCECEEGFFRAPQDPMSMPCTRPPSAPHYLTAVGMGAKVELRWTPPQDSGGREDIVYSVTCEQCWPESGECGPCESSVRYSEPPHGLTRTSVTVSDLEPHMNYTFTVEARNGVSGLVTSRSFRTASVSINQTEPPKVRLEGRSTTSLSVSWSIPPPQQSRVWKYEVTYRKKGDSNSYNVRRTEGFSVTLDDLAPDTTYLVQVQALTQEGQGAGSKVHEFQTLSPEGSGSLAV
Description: (§7) A human Fab capture method was utilized in order to determine kinetics for the antibodies. […] Each channel has two flow cells. The reference flow cell contained only immobilized anti-Fab, whereas the reaction flow cell captured anti-EphA2 IgG through anti-Fab. HBS-EP+ Buffer, pH 7.6 was used as the running buffer. The soluble human, mouse and cyno EphA2 ectodomain flowed over both flow cells on 8 channels. The EphA2 ectodomain concentration started at 50 nM and was serially diluted at one part to one part (1:1) in the running buffer for six concentrations. The analysis chamber was kept at 37° C. Regeneration was performed at the end of each sample washing with the solution of 10 mM Glycine-HCl, pH 2.1 provided in the kit.
(§8) The data were analysed using the Biacore Insight Evaluation Software. Double reference subtraction was completed to generate the final data. The raw data was fitted to a 1:1 binding model, with parameter(s) Rₘₐₓ set to local.

[18] = biological target: T2, cyno EphA2 ectodomain; assay: SPR (Biacore 8k), Fab-capture, 37C, 1:1 model;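 further: Anti-EphA2 IgG captured via immobilized anti-Fab, soluble EphA2 ectodomain as analyte at six twofold dilutions from 50 nM, HBS-EP+ pH 7.6 running buffer, double reference subtraction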
Description: as §7, §8

GI50 ([5]; Homo sapiens, PANC-03-27, 120 h): 2.35 nM
GI50 ([7]; Homo sapiens, 120 h): 0.99 nM
GI50 ([9]; Homo sapiens, SW-403, 120 h): 5.32 nM
GI50 ([14]; Homo sapiens, 120 h): 42.2 nM
Molecule: Cc1c(Nc2nc3ccccc3s2)nnc2c1CCCN2c1ccc(-c2cnn(C[C@]34C[C@]5(C)C[C@](C)(C3)C[C@@](OCCN3CCCC3)(C5)C4)c2C)c(C(=O)O)n1 [P21, 6-[3-(1,3-benzothiazol-2-ylamino)-4-methyl-6,7-dihydro-5H-pyrido[2,3-c]pyridazin-8-yl]-3-[1-[[3,5-dimethyl-7-(2-pyrrolidin-1-ylethoxy)-1-adamantyl]methyl]-5-methyl-pyrazol-4-yl]pyridine-2-carboxylic acid]
GI50 ([4]; Homo sapiens, EBC-1, 120 h): 0.26 nM
GI Amax [4]: −96.78
GI Amax [5]: −79.2
GI50 ([6]; 120 h): 0.05 nM
GI Amax [6]: −56.5
GI Amax [7]: −43.38
GI50 ([8]; 120 h): 0.49 nM
GI Amax [8]: −94.77
GI Amax [9]: −64.33
GI50 ([10]; Homo sapiens, Capan-2, 120 h): 4.38 nM
GI Amax [10]: −81.72
GI50 ([11]; 120 h): 68.8 nM
GI Amax [11]: −27.63
GI50 ([12]; Homo sapiens, DV-90, 120 h): 266 nM
GI Amax [12]: 16.76
GI50 ([13]; Homo sapiens, SK-HEP1, 120 h): 0.05 nM
GI Amax [13]: −75.34
GI Amax [14]: 2.18
GI50 ([15]; Homo sapiens, NCI-N87, 120 h): 0.77 nM
GI Amax [15]: −29.31

binding result [16]: no binding (tested: 200 nM)
B1: 3207 (antibody, V domains shown)
VH: QVQLQQSGPGLVKPSQTLSLTCAISGDSVSSNSAAWSWIRQSPGRGLEWLGRIYYRSKWYNDYAVSVKSRITINPDTSKNQFSLQLNSVTPEDTAVYYCARLDHRYHEDTVYPGMDVWGQGTLVTVSS
VL: DIELTQPPSVSVAPGQTARISCSGDNLPAYTVTWYQQKPGQAPVLVIYDDSDRPSGIPERFSGSNSGNTATLTISGTQAEDEADYYCASWDPSSGVVFGGGTKLTVL
notes: the legend prints only '3207'; also called IgG (3207); IgG anti-chicken lysozyme antibody

Kd [18]: 224 nM
B3: LC Germ (1C1) (antibody, V domains shown)
VH: EVQLLESGGGLVQPGGSLRLSCAASGFTFSHYMMAWVRQAPGKGLEWVSRIGPSGGPTHYADSVKGRFTISRDNSKNTLYLQMNSLRAEDTAVYYCAGYDSGYDYVAVAGPAEYFQHWGQGTLVTVSS
VL: DIQMTQSPSSLSASVGDRVTITCRASQSISTWLAWYQQKPGKAPKLLIYKASNLHTGVPSRFSGSGSGTEFSLTISGLQPDDFATYYCQQYNSYSRTFGQGTKVEIK
notes: also called lots BA-71-QS06, HE-38-AZ34

Kd [18]: 265 nM
B4: anti-EphA2 IgG antibody 1C1 (antibody, V domains shown)
VH: B3 VH
VL: B3 VL
notes: Tested as IgG; also called 1C1 WT IgG; iProt 120126

Kd [18]: 220 nM
B5: 1C1 ADC (antibody, V domains shown)
VH: B3 VH
VL: B3 VL
modifications: antibody-drug conjugate; linker-payload and conjugation sites not stated for this sample
notes: Antibody-drug conjugate of 1C1; also called XD-01-KE85

The remaining lines, values behind:

Molecule: Nc1ccn([C@@H]2O[C@H](CO)[C@@H](O)C2(F)F)c(=O)n1 [Gemcitabine]
% T/C ([1]; Day 11): 31%
ΔTumor volume (mm^3 ± SEM) ([1]; Day 11): 153 ± 39 mm^3
Complete Responders ([1]; Day 34): 0/8

Molecule: CC(=O)O[C@H]1C(=O)[C@@]2(C)[C@H]([C@H](OC(=O)c3ccccc3)[C@]3(O)C[C@H](OC(=O)[C@H](O)[C@@H](NC(=O)c4ccccc4)c4ccccc4)C(C)=C1C3(C)C)[C@]1(OC(C)=O)CO[C@@H]1C[C@@H]2O [Paclitaxel, paclitaxel]
% T/C ([2]; Day 14): 71%
ΔTumor volume (mm^3 ± SEM) ([2]; Day 14): 649 ± 97 mm^3
Complete Responders ([2]; Day 16): 0/8
% T/C [3]: 46%
Complete Responders [3]: 0/8
ΔTumor volume (mm^3 ± SEM) [3]: 687 ± 224 mm^3

B2: anti-EphA2 E152C S375C 1C1 (LC S10T) hIgG1 (WT Heavy Chain) (antibody, V domains shown)
VH: B3 VH
VL: DIQMTQSPSTLSASVGDRVTITCRASQSISTWLAWYQQKPGKAPKLLIYKASNLHTGVPSRFSGSGSGTEFSLTISGLQPDDFATYYCQQYNSYSRTFGQGTKVEIKR
notes: also called BB-60-FO04
Kd [17]: 196 nM
